Data taken from ChEMBL document CHEMBL2150848, “Artificial ladder-shaped polyethers that inhibit maitotoxin-induced Ca2+ influx in rat glioma C6 cells” (Bioorg Med Chem Lett, 2012).
pEC50: −log10 of the molar value. The source made the active and inactive calls. No cut-off for these calls is given here.

Experiments:
C6 [1] = test: Inhibition of MTX-induced calcium influx in rat glioma C6 cells using 45CaCl2 incubated for 12 mins prior to MTX-challenge measured after 12 mins by scintillation counting; assay type: functional, cell-based
C6 [2] = test: Inhibition of MTX-induced calcium influx in rat glioma C6 cells using 45CaCl2 at 10 uM incubated for 12 mins prior to MTX-challenge measured after 12 mins by scintillation counting relative to untreated-control; assay type: functional
C6 [3] = test: Inhibition of MTX-induced 45Ca2+ influx in rat glioma C6 cells; assay type: functional, cell-based
Mus musculus = test: Toxicity in ip dosed mouse; assay type: organism-based; conditions: in vivo

Row | Structure (SMILES) | pEC50 (C6 [1]) | inhibition (C6 [1]) | pEC50 (C6 [3]) | also measured
1 | C[C@@]12CC[C@@H]3O[C@@H]4C[C@@H]5O[C@@H]6C[C@@H]7O[C@]8(C)CC[C@@H]9O[C@H](CO)[C@@H](O)C[C@H]9O[C@H]8C[C@H]7O[C@H]6CC[C@@]5(C)O[C@H]4C[C@H]3O[C@H]1C[C@H]1O[C@@H](CCOCc3ccccc3)[C@H](OCc3ccccc3)C[C@@H]1O2 | 4.82 | – | – | –
2 | C[C@@]12CC[C@@H]3O[C@@H]4C[C@@H]5O[C@@H]6C[C@H](O)[C@@H](CO)O[C@H]6CC[C@@]5(C)O[C@H]4C[C@H]3O[C@H]1C[C@H]1O[C@@H](CCOCc3ccccc3)[C@H](OCc3ccccc3)C[C@@H]1O2 | 5.70 | Dose-dependent effect | – | inhibition at 10 µM (C6 [2]): 80%
3 | C=C(C=O)C[C@@H]1C[C@H](O)[C@@H]2O[C@@H]3C[C@]4(C)O[C@@H]5/C=C\C[C@@H]6O[C@H]7[C@H](C/C=C\C[C@H]6O[C@H]5CCC[C@H]4O[C@H]3C[C@H]2O1)O[C@@H]1C[C@@H]2O[C@@H]3CC(=O)O[C@H]3C[C@@H](C)C[C@@]2(C)O[C@H]1C[C@@H]7C [BREVETOXIN A] | – | – | 4.80 | –
4 | C=C(C=O)C[C@@H]1C[C@H](O)[C@]2(C)O[C@@H]3C[C@@H]4O[C@@H]5C[C@]6(C)O[C@]7(C)CC[C@@H]8O[C@@H]9C[C@]%10(C)O[C@@H]%11C(C)=CC(=O)O[C@H]%11C[C@H]%10O[C@H]9C[C@@H](C)[C@H]8O[C@H]7C[C@H]6O[C@@]5(C)C/C=C\[C@H]4O[C@H]3C[C@H]2O1 [BREVETOXIN B] | – | Active | 4.89 | –
5 | C=CC[C@H](C)[C@H](C)C[C@@H](O)[C@H](O)[C@@H]1CC[C@@]2(C)O[C@@]3(C)C[C@@]4(C)O[C@H]5/C=C\C[C@H]6O[C@H]7C[C@H]8O[C@H]9C[C@@]%10(C)O[C@@](C)([C@@H]%11CC[C@H]%12O[C@@]%13(C)C[C@H]%14O[C@@]%15(C)C[C@H]%16O[C@@]%17(C)C[C@@H](O)[C@H]([C@@H]%18O[C@H]%19[C@H](O)[C@@H](O)[C@H](C[C@H](O)C[C@@H](O)[C@@H]%20O[C@H]%21[C@H](O)[C@@H](O)[C@H]([C@@H]%22O[C@@H]%23[C@H](O)[C@H]%24O[C@H]%25C[C@H]%26O[C@@H](C[C@H](O)[C@@H](O)[C@H]%27O[C@H]%28[C@H](O)[C@H]%29O[C@H]%30C[C@H]%31O[C@H]%32[C@@H](O)[C@@H](O)[C@H]([C@H](C)[C@H](O)[C@H](C)CC[C@H](OS(=O)(=O)[O-])[C@H](O)[C@H](C)C[C@@H](O)C(=C)/C(C)=C/CO)O[C@@H]%32[C@H](O)C[C@]%31(C)O[C@@H]%30C[C@]%29(C)O[C@@H]%28C[C@H]%27O)[C@H](OS(=O)(=O)[O-])[C@H](O)[C@@H]%26O[C@@H]%25C[C@@H]%24O[C@H]%23[C@H](O)[C@H]%22O)O[C@H]%21C[C@H]%20O)O[C@H]%19C[C@H]%18O)O[C@@H]%17[C@H](O)[C@]%16(C)O[C@@H]%15CC[C@]%14(C)O[C@@H]%13C[C@@H]%12O%11)[C@H](O)C[C@@H]%10O[C@]9(C)CC[C@]8(C)O[C@]7(C)C[C@@H]6O[C@@H]5C[C@@H]4O[C@@H]3C[C@@H]2O1.[Na+].[Na+] [MAITOTOXIN] | – | – | – | LD50 (Mus musculus): 50 ng/kg
